Source: US10919889B2, “Chiral heterocyclic compound with hedgehog pathway antagonist activity, method and use thereof” (SUZHOU KINTOR PHARMACEUTICALS, INC., priority 2016, dated 2021)
Read-outs that look alike come from different tables or passages of the source.

Key:
[1] = tested on: Hh signaling pathway; assay: NIH3T3-GRE-Luc luciferase reporter assay (primary assay); type: cell-based
Excerpt: NIH3T3 cells (CRL-1658, ATCC) were maintained in DMEM (Gibico) supplemented with 10% FBS (Hyclone). GRE-Luc plasmid was generated by inserting 8×Gli-1 responsive element (GRE) into the multiple cloning site of pGL4.26 vector (Promega). NIH3T3-GRE-Luc reporter cell line was established by hygromycin (Invitrogen) selection after transfected with GRE-Luc luciferase reporter plasmid. Single clones were validated by the induction of luciferase by recombinant sonic hedgehog (sHh) protein or small molecule agonist SAG (ABIN629346). Selected clone was used to monitor the Hh signaling.
(§1) The NIH3T3-GRE-Luc cells were maintained in complete culture medium (DMEM with 4 mM L-Gln, 1.5 g/L sodium bicarbonate and 4.5 g/L glucose supplemented with 100 μg/mL hygromycin and 10% FBS). When confluent, the cells were trypsinized and re-suspended in assay medium (0.5% serum-containing DMEM). After 100 µL/well of cells suspension was added to the 96-well-plate (Final cell concentration is 15,000 cells/well), cells were cultured for additional 48 hours before adding the compounds.
Compounds were serially diluted in DMSO and further diluted with assay medium. In an embodiment, 10 nM SAG was added in assay medium as the agonist of Hh signaling. After the compounds and agonist were prepared, the medium was removed carefully. 100 μL of assay medium containing compound and agonist was added to the cell with care. Cell plates were incubated at 37° C. for additional 48 hours.
(§2) Following the 48 hours incubation, 40 μL/well of luciferase media (Brigh-Glo, Promega) was added to the cells. The plate was incubated at room temperature for 5 minutes under gentle shaking. Luminescence signal was measured with plate reader (PHERAstar FS, BMG). The potency of compounds was calculated based on the inhibition of luminescence signaling.
NIH3T3 cells (CRL-1658, ATCC) were maintained in DMEM (11965, Gibico) supplemented with 10% FBS (Hyclone). GRE-Luc plasmid was generated by cloning 8×Gli-1 responsive element (GRE) into the MCS of pGL4.26 (Promega). NIH3T3-GRE-Luc reporter cell lines were established by hygromycin (Invitrogen) selection after transfection with GRE-Luc luciferase reporter plasmid. Single clones were validated for the assay quality with N-terminal fragment of recombinant sonic hedgehog protein or small molecule agonist SAG (ABIN629346). Selected clone were used to monitor the Hh signaling.
as §1, with “ug/ml” for “μg/mL”, “resuspended” for “re-suspended”, “ul/well” for “µL/well”
Compounds were serially diluted in DMSO and further diluted with assay medium. In an embodiment, 10 nM SAG was added in assay medium as the agonist of Hh signaling. After the compounds and agonist were prepared, carefully remove medium (Aspirate the medium with pipette instead of vacuum, or else the NIH3T3 cells monolayer will be detached). 100 ul of assay medium containing compound or agonist was added to the cell with care. Cell plates were incubated at 37 degree for additional 48 hours.
as §2, with “ul/well” for “μL/well”, “min” for “minutes”, “basing” for “based”

[2] = biological target: T1, CYP2C19 (Homo sapiens, UniProt P33261); assay: CYP liver enzyme inhibition experiment, CYP-2C19; type: in vitro ADME; conditions: human liver microsomes, pH 7.4, probe S-mephenytoin, 40 µM, test compound 10 μM, HLM, read-out: CYP-2C19 Inhibitory rate (%)
T1 construct: containing HLM (0.2 mg/mL), phosphate buffer (100 mM, pH 7.4); from tissue; host or cells: liver microsomes (HLM)
Experimental: The five major CYP isozymes and their respective probe substrates were: CYP-1A2 (phenacetin, 30 μM), CYP-2C9 (toluenesulfonylurea, 100 μM), CYP-2C19 40 μM), CYP-2D6 (dextromethorphan, 5 μM) and CYP-3A4 (midazolam, 1 μM). All probes were used close to or below their KMS concentrations. The mixture (200 μL) was incubated in a 37° C. constant temperature water bath, containing HLM (0.2 mg/mL), phosphate buffer (100 mM, pH 7.4), NADPH […], test compound (10 μM) and the respective CYP probe substrate. Before the reaction with NADPH, the mixture was pre-incubated for 10 minutes to undergo inhibitor-enzyme interaction. After a specific period of time (10 minutes for CYP-1A2, 2D6 and 3A4; 30 minutes for CYP-2C9 and 2C19), the reaction was quenched by addition to 100 μL solution of appropriate amount of cold acetonitrile. Reaction system was centrifuged and injected into the LC-MS/MS to quantify the concentration of specific metabolite formed from the substrate and the CYP enzyme. Each test compound was tested at least three times independently. […]
Before the start of the reaction with NADPH, the above mixture can be pre-incubated for about 10 minutes to allow inhibitor-enzyme interactions. […] The quenched mixture can be centrifuged, and aliquots of the mixture can then be analyzed by LC-MS/MS to quantify the concentrations of specific metabolic products for each CYP isozyme. […]

[3] = 48 h, 10 nM SAG as agonist, 48 hours, read-out: Effect IC50 (nM)(GRE reporter assay)
[4] = IC50 of vismodegib over that of the tested compound in the same assay
[5] = IC50 value of Vismodegib over that of the tested compound in the same assay
[6] = primary assay, Table 5, read-out: SMO IC50

T1 sequence (P33261 whole entry): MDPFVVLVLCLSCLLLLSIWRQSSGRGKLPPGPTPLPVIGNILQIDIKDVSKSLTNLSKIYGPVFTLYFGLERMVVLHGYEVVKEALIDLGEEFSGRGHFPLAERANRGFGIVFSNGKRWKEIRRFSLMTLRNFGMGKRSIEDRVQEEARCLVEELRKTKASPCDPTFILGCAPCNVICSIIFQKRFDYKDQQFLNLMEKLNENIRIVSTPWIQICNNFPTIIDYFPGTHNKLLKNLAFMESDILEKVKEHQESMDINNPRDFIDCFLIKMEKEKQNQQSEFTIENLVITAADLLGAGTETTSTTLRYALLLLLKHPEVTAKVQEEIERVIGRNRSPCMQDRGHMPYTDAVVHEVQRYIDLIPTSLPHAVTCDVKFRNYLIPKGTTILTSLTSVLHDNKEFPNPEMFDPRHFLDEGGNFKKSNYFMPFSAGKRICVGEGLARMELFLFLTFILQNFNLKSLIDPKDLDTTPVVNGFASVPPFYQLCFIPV

IC50 [1, 3]	IC50 [1, 6]	IC50 ([1]; read-out: IC50 (Hh pathway))	inhibition at 30 min, 10 µM [2]	SMILES	Ratio [1, 4]	Ratio [1, 5]	Hh pathway inhibitory activity compared to compound B2 of S configuration [1]	increase of inhibitory activity against Hedgehog pathway compared with A-55 [1]	increase of Hh pathway inhibitory activity compared to racemic compound B ([1]; chiral compound vs racemic compound)
2.7 nM	2.7 nM	2.7 nM	44 ± 3.3%	Cc1cnc(-c2cc(N3CCc4nc(N5CCC(O)CC5)ncc4C3C)ncc2Cl)c(C)c1 (racemic) [B]	5.0	5.0			
0.8 nM	0.8 nM	0.8 nM	43 ± 2.6%	Cc1cnc(-c2cc(N3CCc4nc(N5CCC(O)CC5)ncc4[C@H]3C)ncc2Cl)c(C)c1 [Compound B1, (R)-1-(6-(5′-chloro-3,5-dimethyl-[2,4′-bipyridin]-2′-yl)-5-methyl-5,6,7,8-tetrahydropyrido[4,3-d]pyrimidin-2-yl)piperidin-4-ol]	22.4	22.4	more than 20 fold	about 12 folds	about 3 fold
